“And” between values parts separate entries of the source, which are not always exact repeats. Equal entries are not always repeated.
Tests used:
[1] = Kinetic analysis of AB23A hydrolysis in human plasma; format: in vitro ADME; details: 25% dilution
Description: (§1) The enzymatic kinetics of AB23A hydrolysis in different tissue preparations (HLMs, HIMs, human plasma) and human recombinant enzymes (hCES1A, hCES2A, hSA, hBchE) were analyzed. The incubation system (200 μL) consisted of PBS, each tested enzyme, and AB23A (ranging from 0 to 1,000 μM). After incubating for 1 h, the supernatants were then used for LC-UV analysis. The kinetic parameters of AB23A hydrolysis were fitted by the following Michaelis−Menten Eq. 1 ([Zhang et al., 2022]). V=(Vmax×[S])⁄(Km+[S]) (1) Here, K m is the Michaelis constant of AB23A hydrolysis, V max is the maximum velocity of AB23A hydrolysis, V max /K m is used to calculate the intrinsic clearance (CL int ).

hSA [2] = target: T1, hSA (Homo sapiens, UniProt P02768); experiment: Identification of the modification sites of hSA by AB23A (LC-MS/MS of tryptic peptides); details: hSA 1 mg/mL, AB23A 50 μM, 37°C; following co-incubation
T1 construct: purchased Sigma-Aldrich Lot#SLCC9268
Description: […] The soluble impurities and unbound molecules were washed by ultrapure water (200 μL) ([Nel et al., 2015]). After denaturation for 1 h in 8 M urea solution at 37°C, the mixture was alkylated with dithiothreitol and iodoacetamide in the dark, washed twice with 200 μL ultrapure water, and finally washed with 200 μL 50 mM ammonium bicarbonate. The samples were digested overnight with 2 μL trypsin in 50 mM ammonium bicarbonate solution at an enzyme-to-substrate ratio of 1:50 (w/w). The trypsin digest was collected and washed with 50 μL NaCl solution (500 mM). The peptides were desalted by the MonoSpin C18 (GL Sciences). Subsequently, the eluents were dried by the vacuum pump and resolved in 40 μL 0.1% formic acid for analyses (please refer to the Supplementary Material for more details).

[3] = Hydrolytic half-life of AB23A in human liver microsomes; format: in vitro ADME; details: human liver microsomes (HLMs), HLMs 0.1 mg/mL, PBS pH 7.4, read-out: t1/2 (hydrolytic/metabolic half-life)
Description: (§2) The hydrolytic half-lives (t1/2) of AB23A in human plasma and different human tissue preparations were carried out according to the procedure of in vitro metabolic stability studies ([Ge et al., 2013]). The incubation mixture (1,000 μL) consisted of PBS (pH 7.4), enzyme sources (HLMs/HIMs/human plasma) and AB23A. 25% diluted human plasma was used, the protein concentrations of other tissue microsomes were 0.1 mg/mL. The 100 μL incubation mixture was moved to another containing ice-cold acetonitrile tube at different time points (0, 5, 15, 30, 45, 60, 90, 120 min). All samples were centrifuged for 30 min at 20,000 g 4°C and took the supernatants for LC-UV analysis.
(§3) The incubation conditions were as follows: the classic incubation system included 100 mM potassium phosphate buffer (PBS, pH 7.4), enzyme sources, and AB23A. In all incubations, PBS and enzyme sources were pre-incubation at 37 °C for 3 min and the reaction was started by adding AB23A (the organic solvent content at most 1%). After reacting 1 h, ice-cold acetonitrile was added to terminate the reaction and precipitate proteins. The samples were centrifuged for 30 min at 20000 × g, 4 °C, and the supernatants were taken for further LC-UV analysis.

hCES1A = target: T2, hCES1A (Homo sapiens, UniProt P23141); experiment: Kinetic analysis of AB23A hydrolysis in hCES1A; format: in vitro ADME; details: 1 h incubation
T2 construct: 10xHis; made in house; host or cells: HEK293-F cells, pTT5 vector, purified from conditioned medium
T2 sequence (P23141 18-563): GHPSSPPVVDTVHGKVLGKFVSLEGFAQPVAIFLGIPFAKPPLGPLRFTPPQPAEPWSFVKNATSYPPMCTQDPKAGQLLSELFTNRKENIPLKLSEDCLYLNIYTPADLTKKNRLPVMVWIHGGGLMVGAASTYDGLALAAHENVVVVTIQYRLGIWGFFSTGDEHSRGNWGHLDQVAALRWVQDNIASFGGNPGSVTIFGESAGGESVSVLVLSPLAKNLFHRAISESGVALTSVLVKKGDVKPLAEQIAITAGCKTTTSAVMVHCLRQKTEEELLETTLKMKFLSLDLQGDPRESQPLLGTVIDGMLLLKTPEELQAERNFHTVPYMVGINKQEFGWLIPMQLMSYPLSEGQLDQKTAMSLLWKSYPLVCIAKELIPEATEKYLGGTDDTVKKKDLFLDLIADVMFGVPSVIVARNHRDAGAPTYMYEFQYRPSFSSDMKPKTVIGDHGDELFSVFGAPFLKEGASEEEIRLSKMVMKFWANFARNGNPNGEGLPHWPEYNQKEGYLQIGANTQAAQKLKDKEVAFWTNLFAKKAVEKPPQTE
Description: as §1

[4] = Hydrolytic half-life of AB23A in pig liver microsomes; format: in vitro ADME; details: pig liver microsomes (PLMs), pH 7.4, PLMs 0.10 mg/mL, read-out: T1/2 (hydrolytic half-life)
[5] = Hydrolytic half-life of AB23A in human intestine microsomes; format: in vitro ADME; details: human intestine microsomes (HIMs), HIMs 0.1 mg/mL, PBS pH 7.4, read-out: t1/2 (hydrolytic/metabolic half-life)
Description: as §2, §3

hCES2A = target: T3, hCES2A (Homo sapiens, UniProt O00748); experiment: Kinetic analysis of AB23A hydrolysis in hCES2A; format: in vitro ADME; details: 1 h incubation
T3 construct: 10xHis; made in house; host or cells: HEK293-F cells, pTT5 vector, purified from conditioned medium
T3 sequence (O00748 27-559): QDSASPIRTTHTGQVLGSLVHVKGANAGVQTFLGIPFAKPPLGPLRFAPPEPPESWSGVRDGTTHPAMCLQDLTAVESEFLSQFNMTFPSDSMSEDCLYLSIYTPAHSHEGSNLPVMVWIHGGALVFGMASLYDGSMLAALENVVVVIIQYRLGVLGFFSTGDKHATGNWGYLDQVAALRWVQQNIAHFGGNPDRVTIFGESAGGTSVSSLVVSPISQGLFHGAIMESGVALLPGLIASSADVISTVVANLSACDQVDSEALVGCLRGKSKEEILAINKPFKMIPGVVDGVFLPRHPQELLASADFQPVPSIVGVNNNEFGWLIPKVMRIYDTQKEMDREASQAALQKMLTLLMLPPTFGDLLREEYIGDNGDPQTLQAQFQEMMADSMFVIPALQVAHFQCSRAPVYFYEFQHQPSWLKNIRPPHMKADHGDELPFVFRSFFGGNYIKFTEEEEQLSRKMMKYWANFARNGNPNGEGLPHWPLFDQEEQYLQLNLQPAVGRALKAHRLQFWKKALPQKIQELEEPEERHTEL
Description: as §1

[6] = Kinetic analysis of AB23A hydrolysis in HLMs; format: in vitro ADME, human
Description: as §1

hSA [7] = target: T1, hSA; experiment: Kinetic analysis of AB23A hydrolysis in hSA; format: in vitro ADME; details: 1 h incubation
Description: as §1

[8] = parameters: method as in Liu et al. (2022); details: oral administration of Qingfei Paidu Decoction, ref Liu et al. (2022); cited from earlier work

T1 sequence (P02768 25-609): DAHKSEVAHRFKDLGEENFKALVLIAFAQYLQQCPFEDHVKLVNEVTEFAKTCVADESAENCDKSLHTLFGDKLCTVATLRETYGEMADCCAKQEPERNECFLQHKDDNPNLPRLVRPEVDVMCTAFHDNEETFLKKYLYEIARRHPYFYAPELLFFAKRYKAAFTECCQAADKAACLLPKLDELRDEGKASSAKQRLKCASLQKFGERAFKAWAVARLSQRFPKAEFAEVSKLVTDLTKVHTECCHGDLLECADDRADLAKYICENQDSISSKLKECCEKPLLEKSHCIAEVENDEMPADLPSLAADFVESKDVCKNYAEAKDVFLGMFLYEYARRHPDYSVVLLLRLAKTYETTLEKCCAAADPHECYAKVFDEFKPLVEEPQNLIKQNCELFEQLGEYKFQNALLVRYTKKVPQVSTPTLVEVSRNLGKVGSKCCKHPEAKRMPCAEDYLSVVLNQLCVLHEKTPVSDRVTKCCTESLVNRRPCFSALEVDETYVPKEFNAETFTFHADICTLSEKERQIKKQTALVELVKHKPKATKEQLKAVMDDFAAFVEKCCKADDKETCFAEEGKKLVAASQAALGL

CC(=O)O[C@H](C[C@@H](C)C1=C2C[C@H](O)C3[C@@]4(C)CCC(=O)C(C)(C)C4CC[C@]3(C)[C@@]2(C)CC1)[C@H]1OC1(C)C (stereo partly drawn) [AB23A, Alisol B 23-acetate]
K m of AB23A hydrolysis [1]: 237.10 ± 15.00 µM
V max of AB23A hydrolysis [1]: 4.536 ± 0.09 nmol/min/mL and 4.536 ± 0.09 ^b nmol/min/mL
Number of lysines in hSA acylated by AB23A (hSA [2]): 39
half-life [3]: 41 ± 0.01 min
K m of AB23A hydrolysis (hCES1A): 190.80 ± 31.41 µM
half-life [4]: 9.5 ± 0.05 min
half-life [5]: 68 ± 0.01 min
K m of AB23A hydrolysis (hCES2A): 58.96 ± 2.41 µM
K m of AB23A hydrolysis [6]: 41.18 ± 3.46 µM
V max of AB23A hydrolysis [6]: 4.77 ± 0.08 nmol/min/mg protein and 4.77 ± 0.08 ^a nmol/min/mg protein
K m of AB23A hydrolysis (hSA [7]): 261.20 ± 18.69 µM
Detection in mice plasma and liver [8]: hardly detected

Source: publication PMC10117764, “The roles of serine hydrolases and serum albumin in alisol B 23-acetate hydrolysis in humans” (Frontiers in Pharmacology, 2023)
